# Data reported in ChEMBL document CHEMBL5042522, “One- and Two-Photon Uncaging of Carbon Monoxide (CO) with Real-Time Monitoring: On-Demand Carbazole-Based Dual CO-Releasing Platform to Test over Single and Combinatorial Approaches for the Efficient Regression of Orthotopic Murine Melanoma In Vivo” (J Med Chem, 2022).
# Columns and labels:
# [1] = system: B16-F10; assay: Photorelease activity in mouse B16-F10 cells assessed as uncaging of active molecules of drug by measuring green fluorescence at 20 uM incubated for 4 hrs irradiated with >= 365 nm Hg lamp for 5 mins and further incubated for 4 hrs by propidium iodide staining based confocal laser scanning microscopy; format: functional, cell-based; conditions: time 8.0 hrs
# [2] = system: B16-F10; assay: Induction of apoptosis in mouse B16-F10 cells assessed as viable cells at 5 uM incubated for 24 hrs by annexin-V-FITC and PI staining based flow cytometry analysis (reference value: 99.9 %); format: functional; conditions: read-out: Activity
# [3] = Biodistribution in liver of C57BL/6 mouse model harboring mouse B16-F10 cells at 0.4 mg/kg, iv irradiated with >= 365 nm Hg lamp for 10 mins measured after 24 hrs post-administration by fluorescence based assay; format: ADME, organism-based; conditions: in vivo, 24.17 h, time 1450 min
# [4] = system: HEK293; assay: Induction of apoptosis in HEK293 cells assessed as necrotic cells at 5 uM incubated for 24 hrs by annexin-V-FITC and PI staining based flow cytometry analysis (reference value: 0 %); format: functional, Homo sapiens
# [5] = system: B16-F10; assay: Cytotoxicity against mouse B16-F10 cells assessed as cell viability at 2.5 uM irradiated with >= 365 nm Hg lamp for 5 mins after 6 hrs post-treatment and further incubated for 72 hrs by MTT assay; format: functional; conditions: B16-F10, light or radiation study, time 78 hrs, read-out: Activity
# [6] = Biodistribution in lung of C57BL/6 mouse model harboring mouse B16-F10 cells at 0.4 mg/kg, iv irradiated with >= 365 nm Hg lamp for 10 mins measured after 24 hrs post-administration by fluorescence based assay; format: ADME, organism-based; conditions: in vivo, 24.17 h, time 1450 min
# [7] = Toxicity in C57BL/6J mouse model harboring mouse B16-F10 cells assessed as lung tissue necrosis at 0.4 mg/kg, iv administered alternate days for 24 days followed by irradiation with pulsed laser at 730 nm for 10 mins after 24 hrs each post-injection by hematoxylin and eosin staining based assay; format: organism-based; conditions: in vivo, 600 h, 0.73 µM, time 25 day
# [8] = Toxicity in C57BL/6J mouse model harboring mouse B16-F10 cells assessed as change in movement at 0.4 mg/kg, iv administered alternate days for 24 days followed by irradiation with pulsed laser at 730 nm for 10 mins after 24 hrs each post-injection by hematoxylin and eosin staining based assay; format: organism-based; conditions: in vivo, 600 h, 0.73 µM, time 25 day
# [9] = system: B16-F10; assay: Cytotoxicity against mouse B16-F10 cells assessed as cell viability at 1.25 to 10 uM irradiated with >= 365 nm Hg lamp for 5 mins after 6 hrs post-treatment and further incubated for 72 hrs by MTT assay; format: functional; conditions: dose 1.25-10 µM, time 78 hrs
# [10] = Drug uptake in mouse B16-F10 cells assessed as drug internalization by measuring blue fluorescence at 20 uM incubated for 4 hrs followed by propidium iodide staining based confocal laser scanning microscopy; format: ADME, cell-based; conditions: b16-f10, 4 h
# [11] = Photorelease activity in PBS buffer at pH 7.4 assessed as release of CO using 3',6'-Bis(allyloxy)-3H-spiro(isobenzofuran-1,9'-xanthen)-3-one fluorescent probe by measuring increase in fluorescence intensity irradiated with >= 365 nm Hg lamp at 500 uM in presence of PdCl2 by fluorescence spectroscopy; format: physicochemical; conditions: pH 7.4, 500 µM, TDE = time-dependent effect
# [12] = Stability of compound in PBS buffer at pH 7.4 at 100 uM incubated for 72 hrs under dark condition by RP-HPLC analysis; format: physicochemical; conditions: read-out: Stability
# [13] = Toxicity in C57BL/6J mouse model harboring mouse B16-F10 cells assessed as heart tissue necrosis at 0.4 mg/kg, iv administered alternate days for 24 days followed by irradiation with pulsed laser at 730 nm for 10 mins after 24 hrs each post-injection by hematoxylin and eosin staining based assay; format: organism-based; conditions: in vivo, 600 h, 0.73 µM, time 25 day
# [14] = system: B16-F10; assay: Induction of apoptosis in mouse B16-F10 cells assessed as necrotic cells at 5 uM with light irradiation incubated for 24 hrs by annexin-V-FITC and PI staining based flow cytometry analysis (reference value: 0 %); format: functional
# [15] = Toxicity in C57BL/6J mouse model harboring mouse B16-F10 cells assessed as kidney tissue necrosis at 0.4 mg/kg, iv administered alternate days for 24 days followed by irradiation with pulsed laser at 730 nm for 10 mins after 24 hrs each post-injection by hematoxylin and eosin staining based assay; format: organism-based; conditions: in vivo, 600 h, 0.73 µM, time 25 day
# [16] = Biodistribution in heart of C57BL/6 mouse model harboring mouse B16-F10 cells at 0.4 mg/kg, iv irradiated with >= 365 nm Hg lamp for 10 mins measured after 24 hrs post-administration by fluorescence based assay; format: ADME, organism-based; conditions: in vivo, 24.17 h, time 1450 min
# [17] = system: HEK293; assay: Induction of apoptosis in HEK293 cells assessed as viable cells at 5 uM incubated for 24 hrs by annexin-V-FITC and PI staining based flow cytometry analysis (reference value: 99.9 %); format: functional; conditions: Homo sapiens, read-out: Activity
# [18] = Photolysis of compound in PBS buffer at pH 7.4 assessed as compound decomposition by measuring final photoproduct formation at 0.1 mM irradiated with >= 365 nm for 30 mins by RP-HPLC analysis; format: physicochemical; conditions: pH 7.4, 0.5 h, 100 µM
# [19] = Photorelease activity in PBS buffer at pH 7.4 assessed as 1,1'-(9-ethyl-9H-carbazole-3,6-diyl)bis(2,2-dihydroxyethanone) photoproduct formation by measuring lambda 485 nm green emission band excited at wavelength of 350 nm for 30 mins by fluorescence spectroscopy; format: physicochemical; conditions: pH 7.4, 0.5 h
# [20] = Biodistribution in kidney of C57BL/6 mouse model harboring mouse B16-F10 cells at 0.4 mg/kg, iv irradiated with >= 365 nm Hg lamp for 10 mins measured after 24 hrs post-administration by fluorescence based assay; format: ADME, organism-based; conditions: in vivo, 24.17 h, time 1450 min
# [21] = Photorelease ability in PBS buffer at pH 7.4 assessed as retention time of 4-(6-(2,2-dihydroxyacetyl)-9-ethyl-9H-carbazol-3-yl)-1,3-dioxol-2-one formation at 100 uM irradiated with >= 365 nm Hg lamp for 30 mins by RP-HPLC analysis; format: physicochemical; conditions: pH 7.4, 0.5 h
# [22] = Photorelease activity in PBS buffer at pH 7.4 assessed as release of CO using 3',6'-Bis(allyloxy)-3H-spiro(isobenzofuran-1,9'-xanthen)-3-one fluorescent probe by measuring red shift absorption spectra at 500 uM irradiated with >= 365 nm Hg lamp in presence of PdCl2 by absorption spectroscopy; format: physicochemical; conditions: pH 7.4, 500 µM, TDE = time-dependent effect
# [23] = system: B16-F10; assay: Induction of apoptosis in mouse B16-F10 cells assessed as necrotic cells at 5 uM incubated for 24 hrs by annexin-V-FITC and PI staining based flow cytometry analysis (reference value: 0 %); format: functional
smiles,measurement,setting,value
CCn1c2ccc(-c3coc(=O)o3)cc2c2cc(-c3coc(=O)o3)ccc21,Drug metabolism,[1],100%
same,viability at 5 µM,[2],99%
same,Drug uptake,[3],Active
same,Activity,[4],0%
same,viability at 2.5 µM,[5],21%
same,Drug uptake,[6],Active
same,Activity,[7],Non-Toxic
same,Activity,[8],Non-Toxic
same,Activity,[9],20%
same,Drug uptake,[10],Active
same,Drug metabolism,[11],Tde
same,"remaining at 72 h, 100 µM",[12],96%
same,Activity,[13],Non-Toxic
same,Activity,[14],0.5%
same,Activity,[15],Non-Toxic
same,Drug uptake,[16],Active
same,viability at 5 µM,[17],98.9%
same,Drug degradation,[18],89%
same,Drug metabolism,[19],Active
same,Drug uptake,[20],Active
same,Retention_time,[21],8.05 min
same,Drug metabolism,[22],Tde
same,Activity,[23],0%
